Source: PubChem BioAssay (NCI)
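48-hour exposure; five concentrations; linearly interpolated endpoints. Abbreviation: GI50, concentration required for 50% inhibition of growth. Definition used: TGI = concentration required for complete inhibition of growth.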

Assays:
Assay in all cases: inhibition of tumour cell growth, NCI panel, 48 h
HOP-92 NSCLC = tested on: HOP-92 NSCLC
A498 renal = tested on: A498 renal
SK-MEL-2 melanoma = tested on: SK-MEL-2 melanoma
NCI/ADR-RES ovarian = tested on: NCI/ADR-RES ovarian
CCRF-CEM leukemia = tested on: CCRF-CEM leukemia
MOLT-4 leukemia = tested on: MOLT-4 leukemia
OVCAR-3 ovarian = tested on: OVCAR-3 ovarian
NCI-H23 lung = tested on: NCI-H23 lung
KM20L2 colon = tested on: KM20L2 colon
UO-31 renal = tested on: UO-31 renal
SR leukemia = tested on: SR leukemia

Compound	TGI (HOP-92 NSCLC) [µM]	TGI (A498 renal) [µM]	TGI (SK-MEL-2 melanoma) [µM]	TGI (NCI/ADR-RES ovarian) [µM]	TGI (CCRF-CEM leukemia) [µM]	TGI (MOLT-4 leukemia) [µM]	TGI (OVCAR-3 ovarian) [µM]	TGI (NCI-H23 lung) [µM]	TGI (KM20L2 colon) [µM]	TGI (UO-31 renal) [µM]	TGI (SR leukemia) [µM]	GI50 (HOP-92 NSCLC) [nM]	GI50 (A498 renal) [nM]	GI50 (SK-MEL-2 melanoma) [nM]	GI50 (NCI/ADR-RES ovarian) [nM]	GI50 (CCRF-CEM leukemia) [nM]	GI50 (MOLT-4 leukemia) [nM]	GI50 (OVCAR-3 ovarian) [µM]	GI50 (NCI-H23 lung) [µM]	GI50 (UO-31 renal) [nM]
CSc1nc2c(ncn2C2OCC(O)C(O)C2O)c(=O)n1C (stereo not given)	> 100	> 100	> 100	> 100	> 100	> 100	> 100	> 100	> 100	> 100										
O=C(Nc1cccc2c1[nH]c1c(-c3ccccc3)nccc12)c1ccccc1[N+](=O)[O-]	9.05	60.3	> 100		> 100	> 100		> 100	> 100		> 100									
CN1CCN(Cc2ccc(NC(=O)c3cccc(C#Cc4cnc(N)c5ncccc45)c3F)cc2C(F)(F)F)CC1	4.63	4.61	1.94	5.18	3.67	3.06	12	16.4		1.54		1270	1590	522	1600	1010	770	5.07	3.99	849
O=C1C=CC(=O)c2c1ccc1c3ccccc3n(-c3ccccc3[N+](=O)[O-])c21		35.6	31.6	20.5	> 31.6	> 100		19.4		2.87	> 100									
COc1ccc2[nH]c3c(C)c4ccnc(NCCCN(C)CCCNc5ccc6ncn7c8ccccc8c(=O)c5c67)c4c(C)c3c2c1	19.2	15.2	8.74	4.55	5.62	3.13	6.56	1.94		4.21	1.61									
COc1cccc(NC(=O)C(=O)C(C(=O)c2ccccc2F)C2OC(=O)c3ccccc32)c1 (stereo not given)	> 100	> 100	75.2		62.3	> 100		98.1	> 100	> 100	48.5									
COc1cc2c(cc1OC)C(=O)/C(=C/c1cc(OC)c(OC)c(OC)c1)C2	> 100	> 100	> 100	> 100	> 100	> 100	> 100	> 100		> 100	> 100									
O=C1C(Cl)N(c2cccc([N+](=O)[O-])c2)C1c1c[nH]c2ccccc12 (stereo not given)	47.9		27.5		65.7	> 100	54.8	85.9	53.6	47.9	57									
COC1(O)c2cccc(Cl)c2C(=O)N1C1(C(N)=O)CCCCC1 (stereo not given)	40.7	> 100	> 100	> 100	> 100	> 100	> 100	> 53.1	> 100	> 100										
NC12CCC(CC1=O)C2 (stereo not given)	> 100		> 100	> 100	> 100	> 100	> 100	> 100		> 100	> 100									
O=Cc1ccc(CCl)cc1	52.5	85.8	32.2		> 100	> 100	34.9		61.8	34.8	> 100									
